Source: US8901317B2, “Tryptamine derivatives, their preparation and their use in gastropathy” (Council of Scientific & Industrial Research, priority 2010, dated 2014)

Assays:
[1] = test system: indomethacin-induced gastric mucosal damage; assay: Indomethacin-induced gastric mucosal damage (ulcer index, histology); format: in vivo, Sprague-Dwaley rats
Experimental: Sprague-Dwaley rats (180-220 gm) were used for this study. Each group (control or experimental) of animals was maintained at 24±2° C. with 12 hrs lights and dark cycle. The animals were fasted for 24 hrs before the start of experiments. They were provided with water ad libitum to avoid food-induced increased acid secretion and its effect on gastric lesions. Gastric mucosal ulcer was developed by indomethacin as described (Pal, C; et al. Free Radic Biol Med, 49(2), 258-267; 2010, Biswas, K.; et al. J. Biol. Chem. 278:10993-11001; 2003, Bandyopadhyay, U.; et al. Life Sci. 71:2845-2865; 2002). Briefly, all the animals were divided into control, indomethacin and test compound group. Oral administration of indomethacin at a dose of 48 mg kg^−1 b.w was given to the fasted animals to induce gastric ulcer. […] Control group received vehicle only but no indomethacin. After 4 hrs of indomethacin treatment, the animals were sacrificed under proper euthanasia and stomachs were collected. The mucosal injury was scored as ulcer index as follows: 0=no pathology; 1=one pinhead ulcer. The sum of the total scores divided by the number of animals gave the ulcer index. All the in vivo studies were done in accordance with the institute animal ethical committee guidelines. To see the effect of SEGA on diclofenac induced gastric mucosal injury, gastric mucosal damage was developed by the oral administration of diclofenac (75 mg kg^−1) and the rest of the experiment was carried out in a similar way as described for indomethacin. Diclofenac produced pinhead ulcer like indomethacin and the mucosal injury was scored as ulcer index as described above. Ethanol-induced gastric mucosal injury was developed with oral administration of 1 ml of 50% ethanol (Banerjee, R. K. (2002) Life Sci 71, 2845-2865) and after 4 hrs the animals were sacrificed and cold-restrain stress induced mucosal injury was developed by immobilizing the animals at 4° C. for 3.5 hrs (Banerjee, R. K. (2002) Life Sci 71, 2845-2865, (2003) J Biol Chem 278, 10993-11001).
Stomach tissues from the animals of different groups were washed first washed several times with PBS (pH 7.4) and later fixed in 10% buffered formalin for 12 hrs at 25° C. The formalin-fixed tissues were then dehydrated and embedded in paraffin for preparing semi-thin sections (Maity, P.; et al. J. Biol. Chem. 283:14391-14401; 2008). The semi-thin sections were prepared using a microtome and taken over poly-L-lysine coated glass slide for hematoxylene-eosine staining. The stained sections were observed under microscope (Leica DM-2500, Germany) and were documented by high-resolution digital camera.

gastric mucosal cells = assay: TUNEL assay of gastric mucosa in vivo; set-up: species or system rats
free iron = assay: Free iron (Phen Green SK); format: cell-based, rat; conditions: in vitro cultured cell
Experimental: Isolated mucosal cells from both control and indomethacin-treated cultured gastric mucosa were used for free iron localization using Phen Green SK, an iron-sensitive fluorescence probe following the protocol as described in the product catalogue (Maity, P.; et al. J. Biol. Chem. 284:3058-3068; 2009). Cells were first incubated with Phen Green SK (20 μm) for 15 min at 37° C. in the dark. After the incubation, cells were washed with HBSS and used for fluorescence microscopy (Leica, DM-2500, Leica Microsystems). Staining of pheen Green SK was visualized using green filter.

[2] = test system: diclofenac induced gastric mucosal injury; assay: Diclofenac-induced gastric mucosal injury (ulcer index); format: in vivo, Sprague-Dwaley rats; conditions: diclofenac 75 mg kg^−1 oral
Experimental: Sprague-Dwaley rats (180-220 gm) were used for this study. Each group (control or experimental) of animals was maintained at 24±2° C. with 12 hrs lights and dark cycle. The animals were fasted for 24 hrs before the start of experiments. They were provided with water ad libitum to avoid food-induced increased acid secretion and its effect on gastric lesions. Gastric mucosal ulcer was developed by indomethacin as described (Pal, C; et al. Free Radic Biol Med, 49(2), 258-267; 2010, Biswas, K.; et al. J. Biol. Chem. 278:10993-11001; 2003, Bandyopadhyay, U.; et al. Life Sci. 71:2845-2865; 2002). Briefly, all the animals were divided into control, indomethacin and test compound group. Oral administration of indomethacin at a dose of 48 mg kg^−1 b.w was given to the fasted animals to induce gastric ulcer. In the drug-pretreated groups, the animals were given drug (50, 20, 10, 5, 3, 1 mg kg^−1 b.w.) intraperitoneally 30 min prior to ulcer induction with indomethacin. Control group received vehicle only but no indomethacin. After 4 hrs of indomethacin treatment, the animals were sacrificed under proper euthanasia and stomachs were collected. The mucosal injury was scored as ulcer index as follows: 0=no pathology; 1=one pinhead ulcer. The sum of the total scores divided by the number of animals gave the ulcer index. All the in vivo studies were done in accordance with the institute animal ethical committee guidelines. To see the effect of SEGA on diclofenac induced gastric mucosal injury, gastric mucosal damage was developed by the oral administration of diclofenac (75 mg kg^−1) and the rest of the experiment was carried out in a similar way as described for indomethacin. Diclofenac produced pinhead ulcer like indomethacin and the mucosal injury was scored as ulcer index as described above. Ethanol-induced gastric mucosal injury was developed with oral administration of 1 ml of 50% ethanol (Banerjee, R. K. (2002) Life Sci 71, 2845-2865) and after 4 hrs the animals were sacrificed and cold-restrain stress induced mucosal injury was developed by immobilizing the animals at 4° C. for 3.5 hrs (Banerjee, R. K. (2002) Life Sci 71, 2845-2865, (2003) J Biol Chem 278, 10993-11001).

O=C(NCCc1c[nH]c2ccc(O)cc12)c1cc(O)c(O)c(O)c1 [Compound 3a, 3,4,5-trihydroxy-N-(2-(5-hydroxy-1H-indol-3-yl)ethyl)benzamide]
Gastric mucosal damage (ulcer index) ([1]; compound 6.9 mg kg^−1 intraperitoneally before indomethacin 48 mg kg^−1 oral, rats): 30 ± 3
protection, indomethacin-induced gastric mucosal injury ([1]; dose 1 mg kg^−1 i.p.): 17%
protection, indomethacin-induced gastric mucosal injury ([1]; dose 3 mg kg^−1 i.p.): 28%
protection, indomethacin-induced gastric mucosal injury ([1]; dose 5 mg kg^−1 i.p.): 45%
protection, indomethacin-induced gastric mucosal injury ([1]; dose 10 mg kg^−1 i.p.): 62%
protection, indomethacin-induced gastric mucosal injury ([1]; dose 20 mg kg^−1 i.p.): 82%
protection, indomethacin-induced gastric mucosal injury ([1]; dose 50 mg kg^−1 i.p.): 94%
ED50, prevention of indomethacin-induced gastric mucosal damage ([1]; intraperitoneal, rats, listed as SEGA (3a)): 6.9 mg/kg
histology of gastric mucosal tissue (haematoxylin-eosin) ([1]; pretreated indomethacin-treated rats): could protect gastric mucosa
indomethacin-induced apoptosis (TUNEL) in vivo (gastric mucosal cells): prevents the indomethcin-induced apoptosis
intramitochondrial iron chelation (Phen Green SK) (free iron): chelates the intramitochondrial iron
protection, diclofenac induced ulcer ([2]; dose 1 mg kg^−1 i.p.): 22%
protection, diclofenac induced ulcer ([2]; dose 3 mg kg^−1 i.p.): 25%
protection, diclofenac induced ulcer ([2]; dose 5 mg kg^−1 i.p.): 42%
protection, diclofenac induced ulcer ([2]; dose 10 mg kg^−1 i.p.): 57%
protection, diclofenac induced ulcer ([2]; dose 20 mg kg^−1 i.p.): 72%
protection, diclofenac induced ulcer ([2]; dose 50 mg kg^−1 i.p.): 82%
